This is an account of results in US12721828B2, “Pharmaceutical liquid composition, kit of parts comprising the pharmaceutical liquid composition, and method for preparing the pharmaceutical liquid composition” (MPERIUM B.V., priority 2019, dated 2026).

Where two headings read alike, the source gives them in different places.

The conditions of data set [1]: 350 mg/ml, 6 hours, room temperature, Watson-Marlow 505-S pump, tube diameter 0.2 mm, rpm 50. As to the method:
A 6 hour test has been performed wherein a SPB oplossing (350 mg/ml) was circulated at room temperature by a Watson-Marlow 505-S pump, tube diameter 0.2 mm, rpm 50. The pump settings correspond to an almost dropwise output. The speed was controlled to be low to simulate a worst case situation to signal blocking of the tube and/or crystallization of the SPB solution in the tube.

For data set [2] the following is noted: 1.88 mmol/ml (350 mg/mL SPB) in an aqueous solution.
Assay in data set [3]: not given
The source holds these as a separate data set.

For the substance Sodium Phenylbutyrate [SPB], the “blockage of the tube and crystallization of the SPB solution in the tube” value in data set [1] was “did not occur”. In addition, in data set [2], the “pH of aqueous solution” value is given as over 8. Also, the “dissolving in purified water” value (500 mg/ml) is “required to pre-heat (40° C.) the purified water to dissolve the SPB completely”. In addition, the “behaviour during the dissolving process in purified water” value (SPB concentrations higher than 350 mg/ml) was “significant lumping”. The crystallization on storage entry in data set [3] (450 mg/ml, 400 mg/ml and 350 mg/ml solutions, 2 weeks at 25° C., 40° C. and 5° C.) is “Only the SPB 500 mg/ml showed crystallization”; in data set [3] (500 mg/ml solution, clear glass bottles, 40° C.), “crystallization after 1 week”.
